According to patent publication US7420001B2 (Wyeth, priority 2003, dated 2008):

Experiments:
[1] = target: T1, MMP-13 (Homo sapiens, UniProt P45452); assay: In-vitro fluorescence assay of MMP-13 activity; format: biochemical; settings: recombinant human catalytic domain of MMP-13; read-out: MMP-13 IC50
T1 construct: made in house

[2] = target: T2, Aggrecanase-1 (Homo sapiens, UniProt O75173); assay: Aggrecanase-1 FRET assay; format: biochemical; settings: rAgg1, WAAG-3R substrate; read-out: AGG-1 IC50
T2 sequence (O75173 213-837): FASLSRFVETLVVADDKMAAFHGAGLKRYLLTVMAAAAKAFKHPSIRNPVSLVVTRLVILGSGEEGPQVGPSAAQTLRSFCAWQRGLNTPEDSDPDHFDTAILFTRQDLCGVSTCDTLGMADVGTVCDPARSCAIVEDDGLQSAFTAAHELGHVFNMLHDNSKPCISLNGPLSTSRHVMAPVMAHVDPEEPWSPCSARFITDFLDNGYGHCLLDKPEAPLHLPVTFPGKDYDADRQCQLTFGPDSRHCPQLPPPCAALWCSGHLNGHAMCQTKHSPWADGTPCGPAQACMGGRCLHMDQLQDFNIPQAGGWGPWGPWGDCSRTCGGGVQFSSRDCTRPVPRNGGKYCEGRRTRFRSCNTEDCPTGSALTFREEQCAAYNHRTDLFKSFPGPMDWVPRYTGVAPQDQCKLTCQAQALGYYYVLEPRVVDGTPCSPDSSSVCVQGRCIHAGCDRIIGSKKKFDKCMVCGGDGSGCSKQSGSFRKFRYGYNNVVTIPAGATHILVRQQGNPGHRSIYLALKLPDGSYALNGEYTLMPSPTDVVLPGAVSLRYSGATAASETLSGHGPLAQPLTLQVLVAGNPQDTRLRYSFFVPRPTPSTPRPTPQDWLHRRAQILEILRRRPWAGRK
Procedure: h. Aggrecanase-1 FRET Assay:
The following protocol was used: • Fluorimeter was started and temperature set to 30° C., about 30 min before setting up the assay. The following reagents are used: • Buffer: 50 mM HEPES, pH 7.5, 100 mM NaCl, 5 mM CaCl2, 0.1% CHAPS, 5% glycerol. • rAgg1: 5 μg/ml (final concentration in the assay): • Substrate: WAAG-3R (MWT=1645.8, Anaspec, stored at 4° C.). Make a stock at 2 mg/ml in 100% DMSO. Measure the absorbance at 354 nm (ε=18172 M^−1 cm^−1) to determine the exact concentration. Dilute to 62.5 μM in buffer. Store unused 100% DMSO stock at −80° C. Final concentration of substrate in the assay is 25 μM. […] Make up inhibitors at 10× starting concentration in 100% DMSO. Perform serial dilutions (in duplicate) across the nunc plate in 100% DMSO; • Dilution plates: Nunc, polypropylene low binding (Nalgene) • Assay plate: Fluoronunc (Nalgene) • Fluorimeter: GeminiXS (Molecular Devices).; • The assay is performed as follows: The plates are set up so that the final column (12) is used for controls. Total reaction volume is 100 μl. Each compound is assayed in duplicate, so 4 compounds are screened per plate. • 1) Add buffer to the entire 96-well plate (30 ρl/well). • 2) Dilute rAgg1 to 25 μg/ml buffer just prior to addition on the plate. Add 20 μl/well to all wells. Mix 6 times. • 3) Add 10 μl/well of 10× inhibitors from the working plate, except column 12. Mix 6 times. […] Mix 6 times.
The reaction is monitored for 30-40 min at 30° C. λex: 340 nm and λ em: 420 nm). The fluorescence is linear during this time and the slope of the line (Vmax/sec) represents the initial reaction rate, ν. The maximal rate of cleavage of substrate is determined in the absence of inhibitor. The percent inhibition of activity in the presence of inhibitor is calculated as follows:
[formula] The IC50 was obtained by fitting the initial rate, ν, or % inhibition at each concentration of inhibitor to the following equation in Excel. y=(a−d)/(1+C/IC50)^n)+d This model describes a sigmoidal curve with an adjustable baseline, […]. y is the % inhibition or initial rate of reaction, C is the concentration of inhibitor under test. a is the limiting response as C approaches zero. […] The sign of n is positive when the response increases with increasing dose and is negative when the response decreases with increasing dose (inhibition).

[3] = target: T3, MMP-14 (Homo sapiens, UniProt P50281); assay: In-vitro fluorescence assay of MMP-14 activity; format: biochemical; settings: recombinant human catalytic domain of MMP-14
T3 construct: 20 kDa; purchased Chemicon International, Inc. CC 1041
Procedure: A continuous assay was used in which the substrate is a synthetic peptide containing a fluorescent group (7-methoxycoumarin; Mca) which is quenched by energy transfer to a 2,4-dinitrophenyl group. […] The substrate used was Mca-PQGL-(3-[2,4-dinitrophenyl]-L-2,3-diaminopropionyl)-AR-OH (denoted as Wammp-5, custom synthesized by AnaSpec, Inc.). The assay buffer consisted of 50 mM Hepes (pH 7.4), 100 mM NaCl, 5 mM CaCl2, and 0.005% Brij-35. […] The enzymatic reactions were initiated by adding the substrate to a final concentration of 20 μM, and mixing 10 times with a pipette. The final DMSO concentration in the assay was 6.0%.
Plots of the inhibitor concentration vs. the percent inhibition were fit to the following equation: y=(a−d)/[1+(x/c)^b]+d, a general sigmoidal curve with Hill slope, a to d. x is the inhibitor concentration under test. y is the percent inhibition. a is the limiting response as x approaches zero. As x increases without bound, y tends toward its limit d. c is the inflection point (IC50) for the curve. That is, y is halfway between the lower and upper asymptotes when x=c. b is the slope factor or Hill coefficient.

[4] = target: T4, MMP-12 (Homo sapiens, UniProt P39900); assay: In vitro fluorescence assay of MMP-12 activity; format: biochemical; settings: recombinant human MMP-12
T4 construct: made in house
Procedure: A continuous, assay was used in which the substrate is a synthetic peptide containing a fluorescent group (7-methoxycoumarin; Mca) which is quenched by energy transfer to a 2,4-dinitrophenyl group. […] The concentration of the substrate stock was spectrophotometrically determined using the extinction coefficient at 410 nm of 7500 M^−1cm^−1. The assay buffer (pH 7.4) consisted of 50 mM Hepes, 100 mM NaCl, 5 mM CaCl2, and 0.005% Brij-35. […] The plates were then incubated at room temperature for 30 minutes. The enzymatic reactions were initiated by adding substrate to a final concentration of 20 μM and they were mixed by pipetting up and down. The final DMSO concentration in the assay was 10% and the final, total assay volume was 200 μl.

[5] = target: T5, MMP-1 (Homo sapiens, UniProt P03956)
T5 sequence (P03956 100-269 limits assumed): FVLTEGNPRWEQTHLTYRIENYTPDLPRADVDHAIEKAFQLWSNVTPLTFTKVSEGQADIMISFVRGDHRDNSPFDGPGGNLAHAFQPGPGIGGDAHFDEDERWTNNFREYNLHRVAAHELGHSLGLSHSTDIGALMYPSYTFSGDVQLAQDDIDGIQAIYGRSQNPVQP

[6] = target: T6, MMP-7 (Homo sapiens, UniProt P09237); assay: MMP-7 activity assay; format: biochemical; settings: recombinant human MMP-7
T6 construct: Active, recombinant human MMP-7 was purchased from Calbiochem (catalog #444270; expressed in E. coli, 19 kDa); purchased Calbiochem 444270; host or cells: E. coli
T6 sequence (P09237 95-267): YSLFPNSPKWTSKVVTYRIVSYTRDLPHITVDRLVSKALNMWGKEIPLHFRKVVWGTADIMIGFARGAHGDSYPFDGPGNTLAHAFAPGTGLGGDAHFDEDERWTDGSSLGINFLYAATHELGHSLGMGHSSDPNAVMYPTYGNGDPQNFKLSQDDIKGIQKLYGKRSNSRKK
Procedure: (§1) A continuous assay was used in which the substrate is a synthetic peptide containing a fluorescent group (7-methoxycoumarin; Mca) that is quenched by energy transfer to a 2,4-dinitrophenyl group. […] The concentration of the substrate stock was spectrophotometrically determined using the extinction coefficient at 410 nm of 7500 M^−1cm^−1. The assay buffer (pH 7.4) consisted of 50 mM Hepes, 100 mM NaCl, 5 mM CaCl2, and 0.005% Brij-35. Each well of black polystyrene 96-well plates contained a reaction consisting of assay buffer, purified MMP (final concentration of 1.0 nM, prepared by dilution with assay buffer), and varied concentrations of inhibitor (prepared by serial dilution in DMSO in 96-well polypropylene plates). The plates were then incubated at room temperature for 30 minutes. […] The final DMSO concentration in the assay was 10% and the final, total assay volume was 200 μl. […] Plots of the inhibitor concentration vs. the initial cleavage rate were fit to the following equation in order to determine IC50 values: y=Vmax*(1−(x^n/(K^n+x^n))), whereby x=inhibitor concentration, y=initial rate, Vmax=initial rate in the absence of inhibitor, n=slope factor, and K=IC50 for the inhibition curve.

[7] = target: T7, MMP-2 (Homo sapiens, UniProt P08253); assay: In-vitro fluorescence assay of MMP-2 activity; format: biochemical; settings: recombinant human MMP-2; read-out: MMP-2 IC50
T7 construct: purchased Oncogene Research Products (Calbiochem) PF023
T7 sequence (P08253 110-660): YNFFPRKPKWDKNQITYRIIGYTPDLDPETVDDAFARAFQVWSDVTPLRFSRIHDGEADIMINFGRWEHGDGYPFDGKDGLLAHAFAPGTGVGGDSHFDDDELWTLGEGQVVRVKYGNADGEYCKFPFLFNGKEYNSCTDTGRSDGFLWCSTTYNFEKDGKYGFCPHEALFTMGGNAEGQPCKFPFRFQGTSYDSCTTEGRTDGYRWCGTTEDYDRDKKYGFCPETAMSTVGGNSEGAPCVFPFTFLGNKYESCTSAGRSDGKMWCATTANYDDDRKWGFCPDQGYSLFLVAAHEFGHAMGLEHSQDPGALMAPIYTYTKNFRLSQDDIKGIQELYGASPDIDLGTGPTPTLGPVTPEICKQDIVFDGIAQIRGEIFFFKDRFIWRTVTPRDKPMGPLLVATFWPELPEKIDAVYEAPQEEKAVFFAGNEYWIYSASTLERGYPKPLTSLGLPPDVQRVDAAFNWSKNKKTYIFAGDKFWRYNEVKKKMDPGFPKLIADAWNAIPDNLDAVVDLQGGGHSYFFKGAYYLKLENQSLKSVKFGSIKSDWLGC

[8] = target: T8, MMP-9 (Homo sapiens, UniProt P14780); assay: MMP-9 activity assay; format: biochemical; settings: recombinant human MMP-9
T8 construct: Active, recombinant human MMP-9 (83 kDa) was purchased from Calbiochem (catalog #PF024); purchased Calbiochem PF024
T8 sequence (P14780 107-707 limits assumed): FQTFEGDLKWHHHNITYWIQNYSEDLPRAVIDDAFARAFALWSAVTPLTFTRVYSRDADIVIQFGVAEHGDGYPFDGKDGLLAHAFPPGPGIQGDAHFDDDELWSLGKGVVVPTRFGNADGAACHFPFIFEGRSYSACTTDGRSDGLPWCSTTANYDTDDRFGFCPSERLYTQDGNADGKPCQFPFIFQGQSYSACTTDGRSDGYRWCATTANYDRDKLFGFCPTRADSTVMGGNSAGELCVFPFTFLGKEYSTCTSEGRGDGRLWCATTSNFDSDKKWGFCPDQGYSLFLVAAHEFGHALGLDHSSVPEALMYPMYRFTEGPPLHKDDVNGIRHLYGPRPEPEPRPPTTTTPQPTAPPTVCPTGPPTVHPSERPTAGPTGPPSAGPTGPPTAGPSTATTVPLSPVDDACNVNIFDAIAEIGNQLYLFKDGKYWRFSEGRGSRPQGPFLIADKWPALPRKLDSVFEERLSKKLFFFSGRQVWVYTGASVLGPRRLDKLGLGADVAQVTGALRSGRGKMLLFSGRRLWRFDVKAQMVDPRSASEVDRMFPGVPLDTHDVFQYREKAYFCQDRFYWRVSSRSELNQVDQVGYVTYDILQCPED
Procedure: as §1
Active, recombinant human MMP-9 (83 kDa) was purchased from Calbiochem (catalog #PF024).

T4 sequence (P39900 106-280 limits assumed): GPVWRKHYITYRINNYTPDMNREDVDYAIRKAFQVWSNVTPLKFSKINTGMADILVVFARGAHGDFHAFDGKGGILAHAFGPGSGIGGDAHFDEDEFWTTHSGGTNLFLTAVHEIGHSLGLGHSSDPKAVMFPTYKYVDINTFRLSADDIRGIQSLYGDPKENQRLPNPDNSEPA

Row | SMILES | IC50 [1] | IC50 [2] | IC50 [3] | IC50 [4] | IC50 [5] | IC50 [6] | IC50 [7] | IC50 [8]
1 | COc1c(Br)ccc2oc(COc3ccc(-c4ccc(S(=O)(=O)N[C@@H](C(=O)O)C(C)C)cc4)cc3)c(C)c12 [Example 136, D-2-[4′-(5-Bromo-4-methoxy-3-methyl-benzofuran-2-ylmethoxy)-biphenyl-4-sulfonylamino]-3-methyl-butyricacid] | 1.8 nM | 430 nM | 5000 nM | 20 nM | 400000 nM | 1100 nM | 135 nM | > 7000 nM
2 | COCCCc1cccc2oc(C(=O)Nc3ccc(-c4ccc(S(=O)(=O)N[C@H](C(=O)O)C(C)C)cc4)cc3)c(C)c12 [Example 30, L-2-(4′-{[4-(3-Methoxy-propyl)-3-methyl-benzofuran-2-carbonyl]-amino}-biphenyl-4-sulfonylamino)-3-methyl-butyric acid] | 11 nM | 14000 nM | 26200 nM | 85 nM | > 18000 nM | 6000 nM | 4000 nM | 1500 nM
